Assay results: the supplement of paper PMC10307832

Key:
Test in all cases: relative viability (nuclei count vs DMSO), 5 days (fraction); higher = more cells survive
17-AAG + Lapatinib = compound: C=CCNC1=C2C[C@@H](C)C[C@H](OC)[C@H](O)[C@@H](C)/C=C(\C)[C@H](OC(N)=O)[C@@H](OC)/C=C\C=C(/C)C(=O)NC(=CC1=O)C2=O [17-AAG] + CS(=O)(=O)CCNCc1ccc(-c2ccc3ncnc(Nc4ccc(OCc5cccc(F)c5)c(Cl)c4)c3c2)o1 [Lapatinib] (partner 2 µM)
In short: (§1)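 Relative viability was taken as the ratio of nuclei in treated wells to nuclei in vehicle wells. Lung cancer cell lines in 1536-well plates received compounds by pin tool one day after seeding, either one drug alone or a fixed anchor-drug dose plus five library-drug doses (not always all listed) in √10 steps. Nuclei were counted on 4× images after 5 days of treatment, and values are medians of duplicate plates.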

17-AAG + OSI-027 = compound: C=CCNC1=C2C[C@@H](C)C[C@H](OC)[C@H](O)[C@@H](C)/C=C(\C)[C@H](OC(N)=O)[C@@H](OC)/C=C\C=C(/C)C(=O)NC(=CC1=O)C2=O [17-AAG] + COc1cccc2cc(-c3nc([C@H]4CC[C@H](C(=O)O)CC4)n4ncnc(N)c34)[nH]c12 [OSI-027] (partner 0.5 µM)
In short: as §1

17-AAG + Alpelisib = compound: C=CCNC1=C2C[C@@H](C)C[C@H](OC)[C@H](O)[C@@H](C)/C=C(\C)[C@H](OC(N)=O)[C@@H](OC)/C=C\C=C(/C)C(=O)NC(=CC1=O)C2=O [17-AAG] + Cc1nc(NC(=O)N2CCC[C@H]2C(N)=O)sc1-c1ccnc(C(C)(C)C(F)(F)F)c1 [Alpelisib] (partner 2 µM)
In short: as §1

17-AAG + Linsitinib = compound: C=CCNC1=C2C[C@@H](C)C[C@H](OC)[C@H](O)[C@@H](C)/C=C(\C)[C@H](OC(N)=O)[C@@H](OC)/C=C\C=C(/C)C(=O)NC(=CC1=O)C2=O [17-AAG] + C[C@]1(O)C[C@@H](c2nc(-c3ccc4ccc(-c5ccccc5)nc4c3)c3c(N)nccn32)C1 [Linsitinib] (partner 1 µM)
In short: as §1

Cell Line	relative viability (17-AAG + Lapatinib; first compound 0.00128 µM)	relative viability (17-AAG + Lapatinib; first compound 0.004048 µM)	relative viability (17-AAG + Lapatinib; first compound 0.0128 µM)	relative viability (17-AAG + Lapatinib; first compound 0.04048 µM)	relative viability (17-AAG + Lapatinib; first compound 0.128 µM)	relative viability (17-AAG + OSI-027; first compound 0.00128 µM)	relative viability (17-AAG + OSI-027; first compound 0.004048 µM)	relative viability (17-AAG + OSI-027; first compound 0.0128 µM)	relative viability (17-AAG + OSI-027; first compound 0.04048 µM)	relative viability (17-AAG + OSI-027; first compound 0.128 µM)	relative viability (17-AAG + Alpelisib; first compound 0.00128 µM)	relative viability (17-AAG + Alpelisib; first compound 0.004048 µM)	relative viability (17-AAG + Alpelisib; first compound 0.0128 µM)	relative viability (17-AAG + Alpelisib; first compound 0.04048 µM)	relative viability (17-AAG + Alpelisib; first compound 0.128 µM)	relative viability (17-AAG + Linsitinib; first compound 0.00128 µM)	relative viability (17-AAG + Linsitinib; first compound 0.004048 µM)	relative viability (17-AAG + Linsitinib; first compound 0.0128 µM)	relative viability (17-AAG + Linsitinib; first compound 0.04048 µM)	relative viability (17-AAG + Linsitinib; first compound 0.128 µM)
NCI-H2085	0.784	0.802	0.812	0.875	0.527	0.845	0.859	0.763	0.521	0.29	0.825	1	0.934	0.852	0.671	0.9	0.844	1.02	0.849	0.533
NCI-H2087	0.823	0.808	0.477	0.238	0.135	0.483	0.325	0.124	0.15	0.0762	1.16	0.904	0.308	0.189	0.165	0.886	0.797	0.344	0.248	0.197
NCI-H2126	0.731	0.784	0.775	0.53	0.276	0.778	0.758	0.479	0.231	0.291	0.757	0.792	0.742	0.714	0.303	0.753	0.688	0.776	0.692	0.373
NCI-H2228	1.08	0.109	0.128	0.161	0.168	0.583	0.265	0.104	0.0876	0.0979	0.781	0.273	0.16	0.19	0.153	0.614	0.264	0.171	0.15	0.141
NCI-H2347	0.938	0.96	1.04	0.647	0.432	0.323	0.395	0.464	0.241	0.201	1.12	0.961	1.1	0.565	0.417	0.91	0.84	0.997	0.656	0.37
NCI-H2405	1.04	0.784	0.193	0.203	0.138	0.636	0.686	0.532	0.223	0.181	0.942	0.695	0.221	0.233	0.16	1.02	0.737	0.262	0.219	0.194
NCI-H3122	1	0.931	0.542	0.293	0.218	0.713	0.169	0.126	0.12	0.114	0.687	0.533	0.198	0.196	0.173	1.02	0.985	0.254	0.207	0.138
PC-3 [JPC-3]	0.486	0.442	0.444		0.472	0.729	0.787	0.851		0.653	0.976	1.03	1.02		0.955	1	0.883	0.959		0.911
PC-14	0.315	0.304	0.311	0.156	0.113	0.803	0.289	0.0511	0.0734	0.0603	0.939	0.726	0.662	0.106	0.0874	1	0.879	0.575	0.169	0.124
RERF-LC-KJ	0.957	0.901	1.04	0.508	0.297	0.62	0.637	0.231	0.268	0.22	0.957	0.829	0.759	0.291	0.277	0.857	0.886	0.923	0.881	0.275
SK-LU-1	0.812	0.545	0.454	0.216	0.14	0.342	0.17	0.102	0.0747	0.0783	0.961	0.327	0.188	0.237	0.165	1.19	0.455	0.352	0.212	0.191
SK-MES-1	0.55	0.559	0.405	0.188	0.145	0.597	0.426	0.127	0.136	0.134	0.884	0.842	0.553	0.144	0.152	1	1.01	0.598	0.282	0.165
SW 1573	1.06	1.21	0.897	0.217	0.117	0.639	0.444	0.163	0.108	0.091	0.817	0.716	0.648	0.158	0.109	0.987	0.901	0.647	0.249	0.128
UMC-11	0.887	0.992	0.566	0.204	0.127	0.469	0.512	0.255	0.233	0.202	1.05	0.855	0.658	0.211	0.129	0.967	0.943	0.751	0.299	0.178
